Experimental data published in patent publication USRE37525E1, “Method for treating infectious respiratory diseases” (priority 1991, dated 2002).
“And” between values parts separate entries of the source, which are not always exact repeats. Identical values can stand only once. “Also recorded” adds a separate entry of the source. Like-named read-outs stand apart in the source and are kept apart here.

What was measured:
adenovirus type 5 (Ad-5) = experiment: Pulmonary pathology (histology) in Ad-5-infected cotton rats; format: in vivo
Text: (§1) Inbred cotton rats (Sigmodon hispidus) were obtained from the colony of Virion Systems, Inc. Adult animals, free from specific rodent pathogens, were used. Animals were housed in large polycarbonate rat cages with a bedding of hardwood chips, and fed a diet of standard rat chow and water. Adult animals ranging from 1 to 8 months of age were used. No age-related differences in response to infection or treatment were seen.
(§2) Hydrocortisone acetate was selected as the prototypical corticosteroid for the anti-inflammatory studies. Cotton rats were infected (Day 0) by intranasal instillation of PIV3 (10^6 pfu/animal) or Ad-5 (10^9 pfu/animal). Animals were anesthetized with methoxyflurane, and the inoculating virus was delivered in a volume of 0.1 ml/100 gm body weight of the animal. On Day 3, animals were anesthetized with methoxyflurane, and hydrocortisone acetate (50 mg/ml) was instilled intranasally in a volume of 0.1 ml/100 gm body weight. The same treatment with hydrocortisone acetate was repeated once per day on Days 4 and 5. For purposes of comparison, control animals were infected concurrently on Day 0, but received no treatment on Days 3, 4, or 5. On Day 6, all animals were euthanized by carbon dioxide intoxication.
(§3) Lungs were removed from the thorax and inflated through the trachea with neutral buffered formalin. Histologic sections were made by following standard procedures and stained with hematoxylin and eosin (H&E).
(§4) Topical administration was accomplished by anesthetizing the animals, holding them in a vertical posture, and instilling a solution containing corticosteroid onto the nares. A total volume of 0.1 ml/100 gm body weight was used. […] However, for human administration it is desirable to use a small particle aerosol delivered by a device that could be triggered by inhalation or used synchronously with the inhalation phase of ventilation for patients on a ventilator. Such a device could deliver aerosol from powder (spinhaler) or liquid. Since many patients, especially young infants and debilitated adults, may have diminished respiratory inhalation vigor, it is important to synchronize aerosol generation with inhalation. This could be accomplished by having inhalation trigger the aerosol delivery to the airway (nasal prongs, oral tube, etc.). The trigger mechanism could include negative pressure from inhalation, chest movement, or electrical triggering synchronized with diaphragmatic contraction. Electrical leads used to monitor respirations could be used to synchronize aerosol generation to be triggered at the first initiation of diaphragmatic contraction and respiration. Any form of aerosol generator is suitable if aerosol delivery is synchronized with inhalation and appropriate particle size is consistently generated.
(§5) Therapeutic efficacy is determined by comparing two parameters in treated versus control animals: (1) the percentage of alveoli on a single H&E-stained coronal section of lungs containing interstitial and/or intraalveolar pathology; and (2) the percentage of bronchioles, on the same section of lungs, affected by peribronchiolar lymphocytic infiltration.

[1] = test system: parainfluenza virus type 3 (PIV3); format: in vivo, cotton rats (Sigmodon hispidus)
Text: as §1, §2
These included dexamethasone acetate (8 mg/ml) and triamcinolone acetonide (40 mg/ml). Of course, other corticosteroids or anti-inflammatory agents known to one of ordinary skill in the art could also be used.
as §3, §4, §5
Triamcinolone acetonide was selected as the prototypical corticosteroid for the combined anti-infective and anti-inflammatory studies. […] Therefore, the use of triamcinolone acetonide is merely by example of a general property of corticosteroids. Cotton rats were infected (Day 0) by intranasal instillation of PIV3 (10^6 pfu/animal) or RSV (10^5 pfu/animal). Animals were anesthetized with methoxyflurane, and the inoculating virus was delivered in a volume of 0.1 ml/100 gm body weight of the animal. […]

[2] = test system: respiratory syncytial virus (RSV); format: in vivo; conditions: topical treatment Days 3, 4, 5
Experimental: (§6) Triamcinolone acetonide was selected as the prototypical corticosteroid for the combined anti-infective and anti-inflammatory studies. […] Cotton rats were infected (Day 0) by intranasal instillation of PIV3 (10^6 pfu/animal) or RSV (10^5 pfu/animal). Animals were anesthetized with methoxyflurane, and the inoculating virus was delivered in a volume of 0.1 ml/100 gm body weight of the animal. On Day 3, animals were anesthetized with methoxyflurane, and treated by intranasal instillation of anti-infective agent or a combination of anti-infective agent and corticosteroid, in a volume of 0.1 ml/100 gm body weight. The same treatment was repeated once per day on Days 4 and 5. For purposes of comparison, control animals were infected concurrently on Day 0, but received no treatment on Days 3, 4, or 5. On Day 6, the time of maximum pulmonary pathology in infected, untreated animals, all animals were euthanized by carbon dioxide intoxication.
(§7) Three experiments were performed using combined therapy: (1) anti-PIV3 antibody (100 mg/kg) and triamcinolone acetonide (4 mg/kg) were used to treat PIV3 infection; (2) anti-RSV antibody (25 mg/kg) and triamcinolone acetonide (4 mg/kg) were used to treat RSV infection; (3) ribavirin (20 mg/kg) and triamcinolone acetonide (4 mg/kg) were used to treat RSV infection. All agents were administered topically as described above in “Drug Testing”.
(§8) Cotton rats were challenged to induce infection in the following manner. The frozen virus (usually at a concentration of 10^5 pfu/ml) was thawed and then immediately instilled (0.05 ml/nostril) into anesthetized cotton rats. […] Lungs were removed from the animal, homogenized in tissue culture fluid, and cultured on HEp2 monolayers. The amount of virus was then quantified.
(§9) A single pool of purified human IgG, with known neutralizing antibody titer, was used with each virus throughout the experiments, to minimize experimental variability. […] Once determined, this dose was used in all subsequent experiments.
(§10) Titrations of virus in pulmonary tissues. Animals were sacrificed by carbon dioxide intoxication. After the thoracic wall was removed aseptically, the lungs were dissected from the heart, and homogenized in a TenBroeck tissue grinder in 10 parts (v:w) of Hanks, balanced salt solution, modified for stabilizing virus by the addition of 0.218 M sucrose, 4.4 mM glutamate, 3.8 mM KH2PO4 and 7.2 mM K2HPO4. […] After four days incubation at 37° C. under methylcellulose overlay, the cells were stained with crystal violet in glutaraldehyde solution, and the plaques counted. Viral titers were expressed as a geometric mean, plus or minus the standard error, for all animals (a minimum of four) at a given time point. […]

[3] = test system: parainfluenza virus type 3 (PIV3); format: in vivo; conditions: topical treatment Days 3, 4, 5
Experimental: as §6, §7, §8, §9, §10

[4] = test system: respiratory syncytial virus (RSV); format: in vivo; conditions: for % Bronchioles: group mean, Table 8, triamcinolone acetonide 4 mg/kg, ribavirin 20 mg/kg, topical Days 3, 4, 5, Day 6; for effect on pulmonary pathology (in words): topical treatment Days 3, 4, 5
Experimental: as §6, §7
Histopathology studies. After animals were sacrificed by carbon dioxide intoxication, the chest cavity was opened, and the heart and lungs removed intact. The trachea was cannulated with a blunt needle, the lungs inflated with 10% neutral buffered formalin to their normal volume, and the trachea tied with a suture. Coronal sections of the lungs were cut at a thickness of 4 microns, and stained with hematoxylin and eosin.
Standard published pathologic criteria for the identification and scoring of bronchiolitis and interstitial pneumonia were used (Porter, 1991 J. Virol. 65:103-111). Briefly, bronchiolitis is the accumulation of inflammatory cells, mostly or exclusively lymphocytes, in and around bronchioles. There may be accompanying damage to the epithelial cells, including loss of cilia or cell death. Interstitial pneumonia is thickening of the alveolar walls, usually accompanied by infiltration of inflammatory cells into the alveolar septae. Bronchiolitis was quantitated by examining each bronchiole within the lung section (generally 40-70 bronchioles) and scoring for the presence or absence of lymphocytic infiltration. The percentage of affected bronchioles was then calculated. Interstitial pneumonia was quantitated by estimating the percentage of affected alveolar tissue in the lung section. A minimum of four animals were examined for each time point. Arithmetic means of pathology scores were calculated, and differences between treatment groups evaluated by the Student t-test of summary data. In each experiment, uninfected animals served as sentinels to rule out the presence of adventitious agents.

[5] = individual animals (Exps. 3, 4)
[6] = range over experiments, treated vs control
[7] = mean, Exps. 1, 2, 6 and 7 combined
[8] = group mean, Experiment 5, dexamethasone acetate 8 mg/ml or triamcinolone acetonide 40 mg/ml intranasal Days 3-5, Day 6
[9] = group mean, Table 6, triamcinolone acetonide 4 mg/kg, anti-PIV3 IgG 100 mg/kg, topical Days 3, 4, 5, Day 6

## CC(=O)OCC(=O)[C@@]1(O)CC[C@H]2[C@@H]3CCC4=CC(=O)CC[C@]4(C)[C@H]3[C@@H](O)C[C@@]21C [hydrocortisone acetate, Hydrocortisone acetate]
Adenovirus type 5 (Ad-5); [5]
  % Alveoli: 10% (2×) and 5% and 9% and 50% and 40% (2×) and 20%
  % Bronchioles: 18% and 16% and 21% and 8% and 26% and 37% and 42% and 50%
Adenovirus type 5 (Ad-5); [6]
  net reduction in disease, alveolar inflammation: 46-79%
  net reduction in disease, bronchiolar inflammation: 57-77%
Adenovirus type 5 (Ad-5); topical hydrocortisone acetate
  exacerbated disease in treated animals: no evidence of exacerbated disease
[1]; group mean per experiment (Exps. 1, 2, 6, 7), hydrocortisone acetate 50 mg/ml, 0.1 ml/100 gm intranasal Days 3, 4, 5, histology Day 6
  % Bronchioles: 9% and 15%
[1]; [7]
  % Alveoli: 24%
  % Bronchioles: 15%
[1]; [6]
  net reduction in disease, alveolar inflammation: 27-56%
  net reduction in disease, bronchiolar inflammation: 77-85%
[1]; topical hydrocortisone acetate
  exacerbated disease in treated animals: no evidence of exacerbated disease

## CC1(C)O[C@@H]2C[C@H]3[C@@H]4CCC5=CC(=O)C=C[C@]5(C)[C@@]4(F)[C@@H](O)C[C@]3(C)[C@]2(C(=O)CO)O1 [Triamcinolone, triamcinolone acetonide]
[2]
  effect on viral titers / viral shedding (in words): prolonged and increased viral shedding
[3]
  effect on viral titers / viral shedding (in words): increased and prolonged viral shedding; also recorded: prolonged and increased viral shedding
[1]; Experiment 5
  reduction of alveolar inflammation compared to control values: 80%
  reduction of bronchiolar inflammation compared to control values: 89%
[1]; [8]
  % Alveoli: 24% and 24 (p < 0.01) %
  % Bronchioles: 9% and 9 (p < 0.001) %
[1]; [9]
  % Alveoli: 10 (p < 0.05) % and 10%
  % Bronchioles: 6 (p < 0.001) % and 6%
[4]
  % Bronchioles: 0 (p < 0.001) %
  effect on pulmonary pathology (in words): dramatically reduced; also recorded: reduced pulmonary pathology

## NC(=O)c1ncn([C@@H]2O[C@H](CO)[C@@H](O)[C@H]2O)n1 [Ribavirin, 1-beta-D-ribofuranosyl-1,2,4,-triazole-3-carboxamide]
[2]
  effect on viral titers / viral shedding (in words): neither effected a significant reduction in pulmonary RSV titers
[2]; listed as ribavirin
  effect on viral titers / viral shedding (in words): did not reduce viral titers
[4]
  % Bronchioles: 48 (N.S.) %
  effect on pulmonary pathology (in words): nor affected pulmonary pathology
[4]; ribavirin 20 mg/kg topical, cotton rat
  therapeutic effectiveness against RSV infection (in words): minimally effective
[4]; listed as ribavirin
  effect on pulmonary pathology (in words): no effect on pulmonary pathology

## CC(=O)OCC(=O)[C@@]1(O)[C@H](C)C[C@H]2[C@@H]3CCC4=CC(=O)C=C[C@]4(C)[C@@]3(F)[C@@H](O)C[C@@]21C [Dexamethasone, dexamethasone acetate]
[1]; Experiment 5
  reduction of alveolar inflammation compared to control values: 28%
  reduction of bronchiolar inflammation compared to control values: 75%
[1]; [8]
  % Alveoli: 50%
  % Bronchioles: 21%
[1]; individual animals, Experiment 5
  % Bronchioles: 29% and 21% and 14%
